Laboratory results as given in US7598245B2 (Vertex Pharmaceuticals Incorporated, priority 2003, dated 2009).

What was measured:
[1] = target: T1, c-KIT (Homo sapiens, UniProt P10721); assay: Inhibition of c-KIT, radiometric filter-binding assay; format: biochemical; conditions: 700 μM ATP, pE4Y substrate
T1 construct: 0.02% BSA and 25 nM c-KIT
Method: Compounds are screened for their ability to inhibit c-KIT activity using a radiometric filter-binding assay. This assay monitors the ^33P incorporation into a substrate poly(Glu, Tyr) 4:1 (pE4Y). Reactions are carried out in a solution containing 100 mM HEPES (pH 7.5), 10 mM MgCl2, 25 mM NaCl, 1 mM DTT, 0.01% BSA and 2.5% DMSO. Final substrate concentrations in the assay were 700 μM ATP and 0.5 mg/mL pE4Y (both from Sigma Chemicals, St Louis, Mo.). The final concentration of compounds is generally between 0.01 and 5 μM. Typically, a 12-point titration is conducted by preparing serial dilutions from 10 mM DMSO stock of test compound. Reactions were carried out at room temperature.
Two assay solutions are prepared. Solution 1 contains 100 mM HEPES (pH 7.5), 10 mM MgCl2, 25 mM NaCl, 1 mg/ml pE4Y and 1.4 mM ATP (containing 0.5 μCi of [γ-^33P]ATP for each reaction). Solution 2 contains 100 mM HEPES (pH 7.5), 10 mM MgCl2, 25 mM NaCl, 2 mM DTT, 0.02% BSA and 25 nM c-KIT. The assay is run on a 96 well plate by mixing 33 μL of Solution1 and 1.65 μL of the test compounds. The reaction is initiated with 33 μL of Solution2. After incubation for 20 minutes at room temperature, the reaction was stopped with 50 μL of 10% TCA containing 0.2 mM of ATP. All of the reaction volume is then transferred to a filter plate and washed with 5% TCA by a Harvester9600 from TOMTEC (Hamden, Conn.). The amount of ^33P incorporation into pE4y is analyzed by a Packard TopCount Microplate Scintillation Counter (Meriden, Conn.). The data is fitted using Prism software to get an IC50 or Ki.

[2] = target: KDR (Homo sapiens, UniProt P35968); assay: Inhibition of KDR, coupled enzyme assay; format: biochemical; conditions: 300 μM ATP, 37° C.
KDR, sequence (P35968 20-1356): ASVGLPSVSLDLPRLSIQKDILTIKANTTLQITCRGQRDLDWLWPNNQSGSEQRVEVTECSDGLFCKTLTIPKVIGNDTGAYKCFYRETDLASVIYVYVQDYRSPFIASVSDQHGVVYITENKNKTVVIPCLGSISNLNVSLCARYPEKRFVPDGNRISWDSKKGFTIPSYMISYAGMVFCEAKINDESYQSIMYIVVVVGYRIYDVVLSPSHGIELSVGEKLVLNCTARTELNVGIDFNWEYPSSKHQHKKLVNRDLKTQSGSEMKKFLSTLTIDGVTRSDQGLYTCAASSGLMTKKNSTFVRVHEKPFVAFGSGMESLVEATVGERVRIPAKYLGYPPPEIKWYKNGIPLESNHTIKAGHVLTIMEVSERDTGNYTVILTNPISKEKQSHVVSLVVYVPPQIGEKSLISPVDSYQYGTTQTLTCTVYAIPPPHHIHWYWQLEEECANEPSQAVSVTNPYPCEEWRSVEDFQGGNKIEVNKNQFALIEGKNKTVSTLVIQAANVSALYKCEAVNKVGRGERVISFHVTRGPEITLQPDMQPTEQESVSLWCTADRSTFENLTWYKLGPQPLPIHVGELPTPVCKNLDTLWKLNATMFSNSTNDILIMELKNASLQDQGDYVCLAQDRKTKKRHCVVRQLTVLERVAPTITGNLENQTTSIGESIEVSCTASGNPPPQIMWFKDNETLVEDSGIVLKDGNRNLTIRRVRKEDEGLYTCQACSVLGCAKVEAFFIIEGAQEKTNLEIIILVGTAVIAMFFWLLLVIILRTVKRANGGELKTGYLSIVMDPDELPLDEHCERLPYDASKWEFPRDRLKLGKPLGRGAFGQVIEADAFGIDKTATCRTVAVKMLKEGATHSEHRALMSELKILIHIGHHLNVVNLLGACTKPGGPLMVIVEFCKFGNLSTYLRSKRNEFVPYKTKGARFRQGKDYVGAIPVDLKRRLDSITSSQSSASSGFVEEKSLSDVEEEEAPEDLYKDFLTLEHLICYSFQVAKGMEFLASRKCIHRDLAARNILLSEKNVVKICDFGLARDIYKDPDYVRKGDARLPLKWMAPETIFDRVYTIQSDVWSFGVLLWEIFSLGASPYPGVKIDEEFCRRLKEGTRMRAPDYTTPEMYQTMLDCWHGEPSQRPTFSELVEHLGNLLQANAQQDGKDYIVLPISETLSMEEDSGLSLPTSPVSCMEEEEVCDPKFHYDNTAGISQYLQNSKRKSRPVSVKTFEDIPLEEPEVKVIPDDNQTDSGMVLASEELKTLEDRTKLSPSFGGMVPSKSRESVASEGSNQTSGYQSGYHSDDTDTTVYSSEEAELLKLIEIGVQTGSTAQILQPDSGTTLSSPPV
Method: Compounds were screened for their ability to inhibit KDR using a standard coupled enzyme assay (Fox et al., Protein Sci., (1998) 7, 2249). Assays were carried out in a mixture of 200 mM HEPES 7.5, 10 mM MgCl2, 25 mM NaCl, 1 mM DTT and 1.5% DMSO. Final substrate concentrations in the assay were 300 μM ATP (Sigma Chemicals) and 10 μM poly E4Y (Sigma). Assays were carried out at 37° C. and 30 nM KDR. Final concentrations of the components of the coupled enzyme system were 2.5 mM phosphoenolpyruvate, 200 μM NADH, 30 μg/ML pyruvate kinase and 10 μg/ml lactate dehydrogenase.
An assay stock buffer solution was prepared containing all of the reagents listed above, with the exception of ATP and the test compound of interest. 177 μl of the stock solution was placed in a 96 well plate followed by addition of 3 μl of 2 mM DMSO stock containing the test compound (final compound concentration 30 μM). The plate was preincubated for about 10 minutes at 37° C. and the reaction initiated by addition of 20 μl of ATP (final concentration 300 μM). Rates of reaction were obtained using a Molecular Devices plate reader (Sunnyvale, Calif.) over a 5 minute read time at 37° C.

T1 sequence (P10721 26-976): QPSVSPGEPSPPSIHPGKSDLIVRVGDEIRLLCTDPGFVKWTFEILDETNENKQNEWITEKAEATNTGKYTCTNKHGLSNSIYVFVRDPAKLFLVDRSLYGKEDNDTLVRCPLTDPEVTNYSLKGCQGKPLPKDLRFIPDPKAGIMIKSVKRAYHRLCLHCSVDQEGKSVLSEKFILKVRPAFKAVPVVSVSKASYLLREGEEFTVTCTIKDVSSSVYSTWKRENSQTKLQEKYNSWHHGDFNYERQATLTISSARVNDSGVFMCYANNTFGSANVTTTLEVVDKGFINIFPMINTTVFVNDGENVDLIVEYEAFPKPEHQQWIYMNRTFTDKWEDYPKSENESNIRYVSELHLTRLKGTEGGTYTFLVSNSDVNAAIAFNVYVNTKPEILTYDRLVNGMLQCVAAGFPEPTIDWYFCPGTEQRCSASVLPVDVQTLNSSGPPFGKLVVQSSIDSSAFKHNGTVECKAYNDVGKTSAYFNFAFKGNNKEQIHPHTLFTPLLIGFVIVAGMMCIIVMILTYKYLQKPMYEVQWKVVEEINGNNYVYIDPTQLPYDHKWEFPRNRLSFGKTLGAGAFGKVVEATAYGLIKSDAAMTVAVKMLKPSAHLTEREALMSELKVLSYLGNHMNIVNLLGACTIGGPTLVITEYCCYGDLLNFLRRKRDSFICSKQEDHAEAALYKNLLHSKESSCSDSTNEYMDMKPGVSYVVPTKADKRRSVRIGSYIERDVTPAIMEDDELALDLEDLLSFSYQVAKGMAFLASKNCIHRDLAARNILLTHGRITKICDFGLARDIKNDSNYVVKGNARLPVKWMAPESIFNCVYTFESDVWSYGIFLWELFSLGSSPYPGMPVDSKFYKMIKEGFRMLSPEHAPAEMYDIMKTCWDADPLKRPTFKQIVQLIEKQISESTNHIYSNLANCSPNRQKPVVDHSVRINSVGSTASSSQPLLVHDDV

c1ccc(-n2cnc(Nc3ccc4c(c3)OCCO4)n2)cc1 [Compound I-44]
Ki [1]: < 50 nM

CCOc1ccc(Nc2ncn(-c3ccccc3)n2)cc1 [Compound I-47]
Ki [1]: < 50 nM

c1ccc(Nc2ncn(-c3ccnc(N4CCCCC4)c3)n2)cc1 [Compound I-49, phenyl-[1-(3,4,5,6-tetrahydro-2H-[1,2′]bipyridinyl-4′-yl)-1H-[1,2,4]triazol-3-yl]-amine]
Ki [2]: < 100 nM

c1ccc(Nc2ncn(-c3ccnc(NC4CCCCC4)c3)n2)cc1 [Compound I-50]
Ki [2]: 100 to 1000 nM

CN(CCO)c1cc(-n2cnc(Nc3ccccc3)n2)ccn1 [Compound I-51]
Ki [2]: < 100 nM

c1ccc(Nc2ncn(-c3ccnc(N4CCCCCCC4)c3)n2)cc1 [Compound I-52]
Ki [2]: < 100 nM

CN(C)CCCN(C)c1cc(-n2cnc(Nc3ccccc3)n2)ccn1 [Compound I-53]
Ki [2]: 100 to 1000 nM

CCN(CCO)c1cc(-n2cnc(Nc3ccccc3)n2)ccn1 [Compound I-54]
Ki [2]: < 100 nM

CN(Cc1ccccc1)c1cc(-n2cnc(Nc3ccccc3)n2)ccn1 [Compound I-55]
Ki [1]: < 50 nM | Ki [2]: 100 to 1000 nM

CC1CCCN1c1cc(-n2cnc(Nc3ccccc3)n2)ccn1 (centres unmarked) [Compound I-56]
Ki [1]: < 50 nM | Ki [2]: < 100 nM

CN(Cc1cccnc1)c1cc(-n2cnc(Nc3ccccc3)n2)ccn1 [Compound I-57]
Ki [2]: < 100 nM

CCCN(CCO)c1cc(-n2cnc(Nc3ccccc3)n2)ccn1 [Compound I-58]
Ki [1]: < 50 nM | Ki [2]: < 100 nM

COCCN(C)c1cc(-n2cnc(Nc3ccccc3)n2)ccn1 [Compound I-59, (2-methoxy-ethyl)-methyl-[4-(3-phenylamino-[1,2,4]triazol-1-yl)-pyridin-2-yl]-amine]
Ki [2]: < 100 nM

CCN(CC)CCNc1cc(-n2cnc(Nc3ccccc3)n2)ccn1 [Compound I-60]
Ki [2]: > 1000 nM

CN1C(C)(C)CC(Nc2cc(-n3cnc(Nc4ccccc4)n3)ccn2)CC1(C)C [Compound I-61]
Ki [2]: 100 to 1000 nM

CC(C)CCN(C)c1cc(-n2cnc(Nc3ccccc3)n2)ccn1 [Compound I-62, methyl-(3-methyl-butyl)-[4-(3-phenylamino-[1,2,4]triazol-1-yl)-pyridin-2-yl]-amine]
Ki [2]: < 100 nM

O=c1[nH]c2ccccc2n1C1CCN(c2cc(-n3cnc(Nc4ccccc4)n3)ccn2)CC1 [Compound I-63]
Ki [2]: > 1000 nM

O=C(C1CCCO1)N1CCN(c2cc(-n3cnc(Nc4ccccc4)n3)ccn2)CC1 (centres unmarked) [Compound I-64]
Ki [2]: > 1000 nM

CCCC(=O)N1CCCN(c2cc(-n3cnc(Nc4ccccc4)n3)ccn2)CC1 [Compound I-68]
Ki [2]: > 1000 nM

CC(C)C(=O)N1CCCN(c2cc(-n3cnc(Nc4ccccc4)n3)ccn2)CC1 [Compound I-69]
Ki [2]: > 1000 nM

CC(C)CC(=O)N1CCCN(c2cc(-n3cnc(Nc4ccccc4)n3)ccn2)CC1 [Compound I-70]
Ki [2]: > 1000 nM

CCOC(=O)c1ccc(Nc2ncn(-c3ccnc(N4CCCN(C(C)=O)CC4)c3)n2)cc1 [Compound I-76]
Ki [2]: 100 to 1000 nM

CC(=O)N1[C@H](C)CN(c2cc(-n3cnc(Nc4ccc(NC(=O)c5cccs5)cc4)n3)ccn2)C[C@@H]1C [Compound I-80]
Ki [1]: < 50 nM | Ki [2]: 100 to 1000 nM

CC(=O)N1[C@H](C)CN(c2cc(-n3cnc(Nc4ccc(NC(=O)c5ccco5)cc4)n3)ccn2)C[C@@H]1C [Compound I-81, Furan-2-carboxylic acid (4-{1-[2-(4-acetyl-3,5-dimethyl-piperazin-1-yl)-pyridin-4-yl]-1H-[1,2,4]triazol-3-ylamino}-phenyl)-amide]
Ki [1]: 50 to 500 nM | Ki [2]: < 100 nM

CC(=O)N1[C@H](C)CN(c2cc(-n3cnc(Nc4ccc(NC(=O)OCC(C)C)cc4)n3)ccn2)C[C@@H]1C [Compound I-90]
Ki [1]: 50 to 500 nM | Ki [2]: 100 to 1000 nM

CC(=O)N1[C@H](C)CN(c2cc(-n3cnc(Nc4ccc(NC(=O)OCC(C)(C)C)cc4)n3)ccn2)C[C@@H]1C [Compound I-91]
Ki [1]: 50 to 500 nM | Ki [2]: 100 to 1000 nM

CC(=O)N1[C@H](C)CN(c2cc(-n3cnc(Nc4ccc(N5CCN(S(=O)(=O)c6ccc(C)cc6)CC5)cc4)n3)ccn2)C[C@@H]1C [Compound I-92]
Ki [1]: 50 to 500 nM | Ki [2]: < 100 nM

O=C(Nc1cc(-n2cnc(Nc3ccccc3)n2)ccn1)C1CCCCC1 [Compound I-93]
Ki [2]: 100 to 1000 nM

O=C(CC1CCCC1)Nc1cc(-n2cnc(Nc3ccccc3)n2)ccn1 [Compound I-94, 2-Cyclopentyl-N-[4-(3-phenylamino-[1,2,4]triazol-1-yl)-pyridin-2-yl]-acetamide]
Ki [2]: 100 to 1000 nM

O=C(CCc1ccccc1)Nc1cc(-n2cnc(Nc3ccccc3)n2)ccn1 [Compound I-95]
Ki [2]: 100 to 1000 nM

O=C(Cc1ccccc1)Nc1cc(-n2cnc(Nc3ccccc3)n2)ccn1 [Compound I-96]
Ki [2]: 100 to 1000 nM

CC(=O)N1[C@H](C)CN(c2cc(-n3cnc(Nc4ccc(N5CCN(C(=O)OC(C)(C)C)CC5)cc4)n3)ccn2)C[C@@H]1C [Compound I-97, 4-(4-{1-[2-(4-Acetyl-3,5-dimethyl-piperazin-1-yl)-pyridin-4-yl]-1H-[1,2,4]triazol-3-ylamino}-phenyl)-piperazine-1-carboxylic acid tert-butyl ester]
Ki [1]: 50 to 500 nM | Ki [2]: < 100 nM

CCNC(=O)Nc1ccc(Nc2ncn(-c3ccnc(N4C[C@@H](C)N(C(C)=O)[C@@H](C)C4)c3)n2)cc1 [Compound I-98, 1-(4-{1-[2-(4-Acetyl-3,5-dimethyl-piperazin-1-yl)-pyridin-4-yl]-1H-[1,2,4]triazol-3-ylamino}-phenyl)-3-ethyl-urea]
Ki [1]: 50 to 500 nM | Ki [2]: < 100 nM

CCCNC(=O)Nc1ccc(Nc2ncn(-c3ccnc(N4C[C@@H](C)N(C(C)=O)[C@@H](C)C4)c3)n2)cc1 [Compound I-99]
Ki [1]: 50 to 500 nM | Ki [2]: < 100 nM

CC(=O)N1[C@H](C)CN(c2cc(-n3cnc(Nc4ccc(NC(=O)NC(C)C)cc4)n3)ccn2)C[C@@H]1C [Compound I-100]
Ki [1]: 50 to 500 nM | Ki [2]: < 100 nM

CC(=O)N1[C@H](C)CN(c2cc(-n3cnc(Nc4ccc(NC(=O)NC(C)(C)C)cc4)n3)ccn2)C[C@@H]1C [Compound I-101]
Ki [1]: 50 to 500 nM | Ki [2]: 100 to 1000 nM

CC(C)(C)CC(=O)Nc1cc(-n2cnc(Nc3ccccc3)n2)ccn1 [Compound I-102]
Ki [2]: 100 to 1000 nM

c1ccc(-n2cnc(Nc3ccc(N4CCOCC4)cc3)n2)cc1 [Compound I-106]
Ki [2]: 100 to 1000 nM

c1ccc(-n2cnc(Nc3ccnc(NCCN4CCOCC4)c3)n2)cc1 [Compound I-107]
Ki [2]: > 1000 nM

c1ccc(-n2cnc(Nc3ccc(N4CCOCC4)nc3)n2)cc1 [Compound I-134]
Ki [2]: 100 to 1000 nM
